The assay concerns IL-1β release upon NLRP3 activation in peripheral blood mononuclear cells (PBMC). As to the kind of experiment: PBMC IC50 determination assay (inhibition of IL-1β release). In kind it is cell-based. Particulars: Homo sapiens; IL-1β release from LPS-primed PBMC stimulated with ATP (5 mM) or nigericin (10 μM); ELISA or HTRF; corresponding sodium salts evaluated. How it is done: The compounds of the present disclosure were tested for their inhibitory activity against IL-1β release upon NLRP3 activation in peripheral blood mononuclear cells (PBMC).
Protocol A. PBMC were isolated from buffy coats by density gradient centrifugation on Histopaque-1077 (Sigma, cat no. 10771). Isolated cells were seeded into the wells of a 96-well plate and incubated for 3 h with lipopolysaccharide (LPS). Following medium exchange, the compounds of the present disclosure were added (a single compound per well) and the cells were incubated for 30 min. Next, the cells were stimulated either with ATP (5 mM) or nigericin (10 μM) for 1 h and the cell culture media from the wells were collected for further analysis.
The release of IL-1β into the media was determined by a quantitative detection of IL-1β in the media using an IL-1β enzyme-linked immunosorbent assay (ELISA) Ready-SET-Go!, eBioscience cat. No. 88-7261-88. Briefly, in a first step, high affinity binding plates (Corning, Costar 9018 or NUNC Maxisorp Cat No. 44-2404) were coated overnight at 4° C. with specific capture antibody included in the kit (anti-human IL-1β ref. 14-7018-68). Subsequently, plates were blocked with blocking buffer for 1 h at room temperature (rt) and after washing with a buffer (PBS with 0.05% Tween-20) incubated with protein standard and culture media. After 2 h of incubation at rt, plates were washed and incubated with biotinylated detection antibody included in the kit (anti-human IL-1β Biotin ref. 33-7110-68) for 1 h at rt. Plates were washed and incubated with HRP-streptavidin for 30 min at rt and washed again. The signal was developed after addition of 3,3′,5,5′-tetramethylbenzidine-peroxidase (TMB) until colour appeared and the reaction was stopped by 2 M H2SO4. A microplate spectrophotometer (BioTek) was used to detect signals with 450 nm. The detection range of IL-1β ELISA was 2-150 ng/ml.
Protocol B. PBMC were isolated from buffy coats by density gradient centrifugation on Histopaque-1077 (Sigma, cat no. 10771). Isolated cells were seeded into the wells (280,000 cells/well) of a 96-well plate and incubated for 3 h with lipopolysaccharide (LPS, 1 μg/ml diluted 1000× from a 1 mg/ml stock solution). The compounds of the present disclosure were added (a single compound per well) and the cells were incubated for 30 min. Next, the cells were stimulated with ATP (5 mM final concentration diluted 20× from a 100 mM stock solution) for 1 h and the cell culture media from the wells were collected for further analysis.
The release of IL-1β into the media was determined by quantitative detection of IL-1β in the media using HTRF®, CisBio cat. No. 62HIL1BPEH. Briefly, cell culture supernatant were dispensed directly into the assay plate containing antibodies labelled with the HTRF® donor and acceptor. A microplate spectrophotometer (BMG) was used to detect signals at 655 nm and 620 nm. The detection range of IL-1β HTRF® was 39-6500 pg/ml.
(In general: An ELISA detects its analyte on a solid surface through an enzyme-linked reagent.)
Turning to `CC(C)c1cc(CC(=O)NS(=O)(=O)N(C[C@@H]2CCCN2C)c2cnn(C)c2)cc(C(C)C)c1F` [Example 9, 2-[4-Fluoro-3,5-bis(propan-2-yl)phenyl]-N-[(1-methyl-1H-pyrazol-4-yl)({[(2S)-1-methylpyrrolidin-2-yl]methyl})sulfamoyl]acetamide], the IC50 is 10 to 50 µM. The same measure for `CC(C)c1cc(CC(=O)NS(=O)(=O)N(C[C@@H]2CCCN2C)c2cnn(C)c2)cc(C(F)(F)F)c1` [Example 10, N-[(1-Methyl-1H-pyrazol-4-yl)({[(2S)-1-methylpyrrolidin-2-yl]methyl})-sulfamoyl]-2-[3-(propan-2-yl)-5-(trifluoromethyl)phenyl]acetamide]: 3 to 10 µM. The value for `CC(C)c1ccc(C(C)C)c(CC(=O)NS(=O)(=O)N(C[C@@H]2CCCN2C)c2cnn(C)c2)c1` [Example 50] was not below 50 µM. The same measure for `CC(C)c1cc(CC(=O)NS(=O)(=O)N(C[C@H]2C[C@@H](F)CN2C)c2cnn(C)c2)cc(C(C)C)c1` [Example 39]: not below 50 µM. `Cn1cc(N(C2CCCNC2)S(=O)(=O)NC(=O)Cc2c3c(cc4c2CCC4)CCC3)cn1` (stereo not shown) [Example 20, 2-(1,2,3,5,6,7-Hexahydro-s-indacen-4-yl)-N-[(1-methyl-1H-pyrazol-4-yl)(piperidin-3-yl)sulfamoyl]acetamide]: the IC50 was in the range of 1 to 3 µM. The same measure for `CC(=O)NCCN(c1cnn(C)c1)S(=O)(=O)NC(=O)Cc1c2c(cc3c1CCC3)CCC2` [Example 23, N-[(2-Acetamidoethyl)(1-methyl-1H-pyrazol-4-yl)sulfamoyl]-2-(1,2,3,5,6,7-hexahydro-s-indacen-4-yl)acetamide]: 10 to 50 µM; for `CCc1cc(CC(=O)NS(=O)(=O)N(c2cnn(C)c2)C2CCCN(C)C2)cc(C(F)(F)F)c1` (stereo not shown) [Example 16, 2-[3-Ethyl-5-(trifluoromethyl)phenyl]-N-[(1-methyl-1H-pyrazol-4-yl)(1-methylpiperidin-3-yl)sulfamoyl]acetamide]: 3 to 10 µM. The same measure for `CN1CCC[C@H]1CN(c1cnn(C)c1)S(=O)(=O)NC(=O)Cc1c2c(cc3c1CCC3)CCC2` [Example 11, 2-(1,2,3,5,6,7-Hexahydro-s-indacen-4-yl)-N-[(1-methyl-1H-pyrazol-4-yl)({[(2S)-1-methylpyrrolidin-2-yl]methyl})sulfamoyl]acetamide]: less than 1 µM; for `CN1CCCC(N(c2cnn(C)c2)S(=O)(=O)NC(=O)Cc2cc(Cl)cc(Cl)c2)C1` (stereo not shown) [Example 33]: 10 to 50 µM.

In the case of `CN1CCCC(N(c2cnn(C)c2)S(=O)(=O)NC(=O)Cc2ccc3c(c2)C(C)(C)CO3)C1` (stereo not shown) [Example 49], the concentration for half-maximal inhibition (IC50) was not below 50 µM. `Cc1noc(N(C2CCCN(C)C2)S(=O)(=O)NC(=O)Cc2cc(C(C)C)cc(C(C)C)c2)c1C` (stereo not shown) [Example 7, 2-[3,5-Bis(propan-2-yl)phenyl]-N-[(3,4-dimethyl-1,2-oxazol-5-yl)(1-methylpiperidin-3-yl)sulfamoyl]acetamide]: the IC50 was less than 1 µM. The value for `CC(C)c1cc(F)cc(C(C)C)c1CC(=O)NS(=O)(=O)N(c1cnn(C)c1)C1CCCN(C)C1` (stereo not shown) [Example 1, 2-[4-Fluoro-2,6-bis(propan-2-yl)phenyl]-N-[(1-methyl-1H-pyrazol-4-yl)(1-methylpiperidin-3-yl)sulfamoyl]acetamide] was 10 to 50 µM; that for `CC(C)c1cc(F)cc(C(C)C)c1CC(=O)NS(=O)(=O)N(c1cnn(C)c1)C1CCOCC1` [Example 30] was not below 50 µM. The value for `CC(C)c1cc(CC(=O)NS(=O)(=O)N(CC2CCCO2)c2cnn(C)c2)cc(C(C)C)c1` (stereo not shown) [Example 38] was 10 to 50 µM; that for `CC(C)c1cccc(CC(=O)NS(=O)(=O)N(c2cnn(C)c2)C2CCCN(C)C2)c1` (stereo not shown) [Example 53] was not below 50 µM. The same measure for `CN1CCCC(N(c2cnn(C)c2)S(=O)(=O)NC(=O)Cc2cc(C(F)(F)F)cc(C(F)(F)F)c2)C1` (stereo not shown) [Example 6, 2-[3,5-Bis(trifluoromethyl)phenyl]-N-[(1-methyl-1H-pyrazol-4-yl)(1-methylpiperidin-3-yl)sulfamoyl]acetamide]: less than 1 µM.

By IC50 is commonly meant the concentration that inhibits the measured activity by half.

The record behind these values is US20220267300A1 (NodThera Limited, priority 2019, published 2022).
